≈ marks a conversion by molar mass, not a printed value.
Columns and labels:
[1] = Solubility test in various oils; assay type: physicochemical; conditions: for Solubility of Tadalafil / solubility at 24 h: room temperature, 24 hours of stirring; for solubility at 24 h: oil or lipid, thermodynamic from solid
Description: Dutasteride and tadalafil were measured for solubility in various oils comprising soybean oil, castor oil, polyoxyl 6 apricot kernel oil, propyleneglycol monolaurate, propyleneglycol monocaprylate, glyceryl caprylate/caprate. In a 10-mL vial, 3 mL of an oil was stirred at room temperature with a magnetic bar during which about 100 mg of the main ingredient was added, followed by stirring at 500 rpm or higher. After 24 hours of stirring, centrifugation was carried out and the supernatant thus formed was taken and subjected to liquid chromatography to quantitate the main ingredient dissolved in the oil phase.

[2] = Solubility test according to surfactant; assay type: physicochemical; conditions: for solubility according to surfactants (in words): in PEG 6 glyceryl caprylate/caprate and PEG 8 caprylic/capric glyceride; for solubility at 24 h: organic solvent or mixture, thermodynamic from solid

CN1CC(=O)N2[C@H](c3ccc4c(c3)OCO4)c3[nH]c4ccccc4c3C[C@@H]2C1=O [Tadalafil, 6R-trans-6-(1,3-benzodioxol-5-yl)-2,3,6,7,12,12a-hexahydro-2-methyl-pyrazino [1′,2′:1,6]pyrido[3,4-b]indole-1,4-dione]
Solubility of Tadalafil ([1]; in Glyceryl caprylate/caprate): 4130 µg/mL | Solubility of Tadalafil ([1]; in Polyoxyl 6 apricot kernel oil): 1120 µg/mL | fold greater solubility than the other oils ([1]; in glyceryl caprylate/caprate and propylene glycol monocaprylate versus castor oil, soybean oil, polyoxyl 6 apricot kernel oil): ≥ 4 fold | solubility at 24 h ([1]; in Propylene glycol monocaprylate, read-out: Solubility of Tadalafil): 4610 µg/mL (≈ 11.8 mM) | solubility according to surfactants (in words) [2]: high solubility | solubility at 24 h ([2]; in PEG 6 glyceryl carpylate/caprate, read-out: Tadalafil Solubility): 9130 µg/mL (≈ 23.4 mM) | solubility at 24 h ([2]; in PEG 8 caprylic/capric glyceride, read-out: Tadalafil Solubility): 8810 µg/mL (≈ 22.6 mM) | solubility at 24 h ([2]; in PEG 35 castor oil, read-out: Tadalafil Solubility): 8100 µg/mL (≈ 20.8 mM) | solubility at 24 h ([2]; in Poloxamer 124, read-out: Tadalafil Solubility): 6230 µg/mL (≈ 16 mM) | solubility at 24 h ([2]; in Polysorbate 60, read-out: Tadalafil Solubility): 10700 µg/mL (≈ 27.6 mM) | solubility at 24 h ([2]; in Polysorbate 80, read-out: Tadalafil Solubility): 9650 µg/mL (≈ 24.8 mM)

C[C@]12C=CC(=O)N[C@@H]1CC[C@@H]1[C@@H]2CC[C@]2(C)[C@@H](C(=O)Nc3cc(C(F)(F)F)ccc3C(F)(F)F)CC[C@@H]12 [Dutasteride, 17β-N-(2,5-bis(trifluoromethyl))phenylcarbomoyl-4-aza-5α-androst-1-en-3-one]
solubility at 24 h ([1]; in Castor oil, read-out: Solubility of Dutasteride): 1500 µg/mL (≈ 2.84 mM) | solubility at 24 h ([1]; in Glyceryl caprylate/caprate, read-out: Solubility of Dutasteride): 14300 µg/mL (≈ 27.1 mM) | solubility at 24 h ([1]; in Polyoxyl 6 apricot kernel oil, read-out: Solubility of Dutasteride): 2550 µg/mL (≈ 4.82 mM) | solubility at 24 h ([1]; in Propylene glycol monocaprylate, read-out: Solubility of Dutasteride): 26300 µg/mL (≈ 49.7 mM) | solubility according to surfactants (in words) [2]: high solubility | solubility at 24 h ([2]; in PEG 6 glyceryl carpylate/caprate, read-out: Dutasteride Solubility): 3550 µg/mL (≈ 6.72 mM) | solubility at 24 h ([2]; in PEG 8 caprylic/capric glyceride, read-out: Dutasteride Solubility): 3860 µg/mL (≈ 7.3 mM) | solubility at 24 h ([2]; in PEG 35 castor oil, read-out: Dutasteride Solubility): 1990 µg/mL (≈ 3.77 mM) | solubility at 24 h ([2]; in Poloxamer 124, read-out: Dutasteride Solubility): 1120 µg/mL (≈ 2.12 mM) | solubility at 24 h ([2]; in Polysorbate 60, read-out: Dutasteride Solubility): 1770 µg/mL (≈ 3.35 mM) | solubility at 24 h ([2]; in Polysorbate 80, read-out: Dutasteride Solubility): 1360 µg/mL (≈ 2.57 mM)
